From patent US6127541A, “Imidazoquinazoline derivatives” (Kyowa Hakko Kogyo Co., Ltd., priority 1996, dated 2000) come the findings set out here.

As usually defined, the inhibition is the percentage by which the read-out fell short of the control.

Counter-ions that a name gives are not always drawn.

Experiment [1] has as its target T1, PDE V (cGMP-specific PDE) (Canis lupus familiaris, UniProt O77746).
T1 construct: purified from canine tracheal smooth muscle; from tissue; host or cells: canine tracheal smooth muscle
Description: Inhibitory activity on PDE V derived from canine tracheal smooth muscle. It is filed as biochemical. The conditions noted are these: Compound conc.: 1 nM; substrate 1.0 μM [3H]cGMP; read-out: PDE V inhibitory activity, Inhibition rate (%). The procedure: Hereinafter, PDE inhibitory activity and pharmacological activity of the representative Compounds (I) are described in more detail by Test Examples. Test Example 1. The inhibitory activity on PDE derived from canine tracheal smooth muscle
(1) Purification of an Enzyme
According to the method of Torphy et al. [Mol. Pharmacol., 37, 206 (1990)], PDE V (cGMP-specific PDE) was purified from canine tracheal smooth muscle.
(2) Measurement of PDE Activity
The activity was measured based on the method of Kincaid et-al. [J. D. Corbin et al., Methods Enzymol., 159, 457(1988), Academic Press, New York]. The measurement was carried out using, as a substrate, 1.0 μM [^3 H]cGMP, and the reaction was carried out in a buffer having the following composition:
50 mM N,N-bis(2-hydroxyethyl)-2-aminoethanesulfonic acid (pH 7.2), 1 mM MgCl2, 0.1 mg/ml soybean trypsin inhibitor.
The reaction was started by addition of the enzyme and stopped by addition of hydrochloric acid after reacting for 10 to 30 minutes at 30° C. Thereafter, sodium hydroxide was added for neutralization and 5'-GMP was converted into guanosine using 5'-nucleotidase. The reaction solution was subjected to DEAE-Sephadex A-25 column. [^3 H]Guano sine was eluted with distilled water and the radioactivity was measured with a liquid scintillation counter. The inhibitor was dissolved in 1.7% DMSO.

For experiment [2], the system named is rats. Briefly: Effect on developed cavernous pressure and duration of tumescence in rats. It is filed as in vivo, male Sprague-Dawley rat. The conditions noted are these: 20 μg/rat, injected into the cavernous body; for DCP (developed cavernous pressure), Pre / DT (duration of tumescence), Pre: before administration; for DCP (developed cavernous pressure), 6-min / DT (duration of tumescence), 6-min: six minutes after administration. The procedure:
Test Example 3. Effect of Developed Cavernous Pressure and Duration of Tumescence in Rats
A male Sprague-Dawley rat was anesthetized with urethane (1.3 g/kg) subcutaneously injected into the back of the neck. The perineal incision was performed and the right crus of the penis was exposed. For measurement of cavernous pressure, a needle (25G) attached to a polyethylene tube (PE50) filled with a heparin solution was inserted into the right crus. The polyethylene tube was connected to a pressure transducer (MPC-500, Millar Instruments) and cavernous pressure was amplified with an amplifier (AP-621G, Nihon Kohden) and then recorded on a pen recorder (LR4220, Yokokawa Denki). The abdomen was incised and cavernous nerves on the prostate was exposed. The nerve was placed on a bipolar tungsten electrode and stimulated by current pulses(frequency; 20 Hz, duration; 0.2 ms, strength; 3 to 5 V) for 50 seconds with an electric stimulator (SEN-3201, Nihon Koden) to induce increases in cavernous pressure. The test compounds were dissolved in distilled water (DW) or 0.01 N hydrochloric acid at a concentration of 1 mg/ml and injected into the cavernous body(0.02 ml/rat) with a needle (27G). Before(Pre) and six minutes after administration (6-min). of distilled water (DW) or the test compounds, the nerve was stimulated, and developed cavernous pressure (DCP) and the duration of tumescence (DT) were measured. DT was defined as the time from the start of stimulation to 50% of the peak cavernous pressure after the end of stimulation.

The subject of experiment [3] is rats. Briefly: Hypotensive effect in anesthetized rats (mean blood pressure). It is filed as in vivo, male Sprague-Dawley rat. The conditions noted are these: rat, 10 mg/kg, i.d. N = 2; from value before administration (100%). The procedure: Test Example 2. The Hypotensive Effect in Rats
After a male Spraque-Dawley rat (two […]/group) anesthetized with urethane was fixed in the supine position, a cannula was inserted into trachea and the rat was artificially ventilated under the conditions of a tidal volume of […] and 60 breathes/min. The carotid artery and the duodenum were cannulated for measuring blood pressure and administering a drug, respectively. The drug was dissolved in distilled water and administered duodenally using the above cannula. Mean blood pressure (mBP) until […] after the drug-administration was measured and the maximum lowering rate (%) from the value before the drug-administration (100%) was determined. No change of mBP was observed during 30 minutes in case of administrating distilled water.

Turning to `CCNc1ccc(CNc2ncnc3cc4c(cc23)[nH]c(=S)n4CC)cc1` [Compound 27, 3-Ethyl-8-(4-ethylaminobenzylamino)-2,3-dihydro-1H-imidazo[4,5-g]quinazoline-2-thione 2 hydrochloride], the inhibition at 0.001 µM in experiment [1] came to 97%.
Turning to `CCn1c(=S)[nH]c2cc3c(NCc4ccccc4N4CCC(CO)CC4)ncnc3cc21` [Compound 34, 3-Ethyl-8-[2-(4-hydroxymethylpiperidino)benzylamino]-2,3-dihydro-1H-imidazo[4,5-g]quinazoline-2-thione 2 hydrochloride], in experiment [1], the inhibition at 0.001 µM was determined as 95%. In experiment [2], the “DCP (developed cavernous pressure), Pre” value stood at 23.9 ± 2.0 mmHg; the “DT (duration of tumescence), Pre” value came out at 3.3 ± 0.9 s; the “DCP (developed cavernous pressure), 6-min” value (from here on “DCP … 6-min”) is 31.1 ± 4.7 mmHg; the “DT (duration of tumescence), 6-min” value was 16.9 ± 2.4 s.
Take `CCn1c(=S)[nH]c2cc3c(NCc4ccccc4NC)ncnc3cc21` [Compound 22, 3-Ethyl-8-(2-methylaminobenzylamino)-2,3-dihydro-1H-imidazo[4,5-g]quinazoline-2-thione 2 hydrochloride]: the inhibition at 0.001 µM in experiment [1] turned out to be 91%.
Consider `CCn1c(=S)[nH]c2cc3c(NCc4ccc(NCc5ccccc5)cc4)ncnc3cc21` [Compound 24, 8-(4-Benzylaminobenzylamino)-3-ethyl-2,3-dihydro-1H-imidazo[4,5-g]quinazoline-2-thione 2 hydrochloride], for which the inhibition at 0.001 µM in experiment [1] came to 88%.
With `CCn1c(=O)[nH]c2cc3c(NCc4ccc(NCc5ccccc5)cc4)ncnc3cc21` [Compound 3, 8-(4-Benzylaminobenzylamino)-3-ethyl-2,3-dihydro-1H-imidazo[4,5-g]quinazoline-2-one 2 hydrochloride], in experiment [1], the inhibition at 0.001 µM came to 62%.
Turning to `CCNc1ccc(CNc2ncnc3cc4c(cc23)[nH]c(=O)n4CC)cc1` [Compound 6, 3-Ethyl-8-(4-ethylaminobenzylamino)-2,3-dihydro-1H-imidazo[4,5-g]quinazoline-2-one 2 hydrochloride], the inhibition at 0.001 µM in experiment [1] was determined as 37%.
As to `CCCNc1ccc(CNc2ncnc3cc4c(cc23)[nH]c(=S)n4CC)cc1` [Compound 26, 3-Ethyl-8-(4-propylaminobenzylamino)-2,3-dihydro-1H-imidazo[4,5-g]quinazoline-2-thione 2 hydrochloride], in experiment [2], the “DCP (developed cavernous pressure), Pre” value worked out at 21.5 mmHg; the “DT (duration of tumescence), Pre” value came out at 3.8 s; the “DCP … 6-min” value worked out at 27.7 mmHg; the “DT (duration of tumescence), 6-min” value was 22.9 s.
For the molecule `CCn1c(=S)[nH]c2cc3c(NCc4ccccc4N4CCOCC4)ncnc3cc21` [Compound 33, 3-Ethyl-8-(2-morpholinobenzylamino)-2,3-dihydro-1H-imidazo[4,5-g]quinazoline-2-thione 1 hydrochloride], the inhibition at 0.001 µM in experiment [1] came out at 98%.
On to `CCn1c(=S)[nH]c2cc3c(NCc4ccccc4N4CCN(C)CC4)ncnc3cc21` [Compound 36, 3-Ethyl-8-[2-(4-methyl-1-piperazinyl)benzylamino]-2,3-dihydro-1H-imidazo[4,5-g]quinazoline-2-thione 3 hydrochloride], for which, in experiment [3], the “Hypotensive activity, Maximum lowering rate (%) of mean blood pressure” value is reported as 17.6%.
On to `CCn1c(=S)[nH]c2cc3c(NCc4ccccc4NCCO)ncnc3cc21` [Compound 30, 3-Ethyl-8-[2-(2-hydroxyethylamino)benzylamino]-2,3-dihydro-1H-imidazo[4,5-g]quinazoline-2-thione 2 hydrochloride], for which the inhibition at 0.001 µM in experiment [1] is 97%.
Consider `CCn1c(=S)[nH]c2cc3c(NCc4ccccc4N4CCCCC4)ncnc3cc21` [Compound 35, 3-Ethyl-8-(2-piperidinobenzylamino)-2,3-dihydro-1H-imidazo[4,5-g]quinazoline-2-thione 2 hydrochloride], for which the inhibition at 0.001 µM in experiment [1] was found to be 95%. For the same molecule, in experiment [2], the “DCP (developed cavernous pressure), Pre” value is listed as 22.6 mmHg; the “DT (duration of tumescence), Pre” value stood at 1.6 s; the “DCP … 6-min” value was 21.2 mmHg; the “DT (duration of tumescence), 6-min” value is 8.1 s.
Take `CCn1c(=O)[nH]c2cc3c(NCc4ccc(NC)cc4)ncnc3cc21` [Compound 2, 3-Ethyl-8-(4-methylaminobenzylamino)-2,3-dihydro-1H-imidazo[4,5-g]quinazoline-2-one 2 hydrochloride]: the “Hypotensive activity, Maximum lowering rate (%) of mean blood pressure” value in experiment [3] worked out at 19.7%.
Consider `CCn1c(=S)[nH]c2cc3c(NCc4cccc(N5CCN(C)CC5)c4)ncnc3cc21` [Compound 40, 3-Ethyl-8-[3-(4-methyl-1-piperazinyl)benzylamino]-2,3-dihydro-1H-imidazo[4,5-g]quinazoline-2-thione 3 hydrochloride], for which the “Hypotensive activity, Maximum lowering rate (%) of mean blood pressure” value in experiment [3] was 16.1%.
Take `CCn1c(=O)[nH]c2cc3c(NCc4ccccc4N4CCSCC4)ncnc3cc21` [Compound 15, 3-Ethyl-8-(2-thiomorpholinobenzylamino)-2,3-dihydro-1H-imidazo[4,5-g]quinazoline-2-one 1 hydrochloride]: the “Hypotensive activity, Maximum lowering rate (%) of mean blood pressure” value in experiment [3] stood at 19.8%.
